Two compounds from patent US11969511B2, “Methods and compositions for antimicrobial treatment” (UNM Rainforest Innovations, priority 2015, dated 2024) can be followed below.

≈ marks a conversion by molar mass, not a printed value. Structures can show the parent of a compound that is named as a salt.

In one assay the test system is P. aeruginosa biofilms. The assay is described as follows: Minimum inhibitory concentration, biofilm phase (XTT). The conditions noted are these: 24 h. It counts as cell-based, Pseudomonas aeruginosa PAO1.
The test system of another assay is P. aeruginosa. The assay is described as follows: Minimum inhibitory concentration of tobramycin (dilution series, plating). It counts as cell-based. The conditions noted are these: Pseudomonas aeruginosa. The procedure: Determination of minimum inhibitory concentration of tobramycin. […] Afterwards, tobramycin was serially diluted into 1 mL of DI H2O and added to the 1 mL aliquots of overnight bacterial culture to the final concentrations of tobramycin ranging from 25 to 250 μg/mL, with 25 μg/mL increments. For the control, 1 mL of sterile DI H2O was added to the aliquot of the culture. The cultures were then grown overnight on a rotary shaker at 37° C. and 150 rpm. The next day, 50 μL aliquots of the overnight cultures were diluted 1:2 with TSB, plated on the TS nutrient agar plates, and grown for 24 hours at 37° C. The next-day plates were checked for the presence of bacterial colonies. […] These findings introduce a starting point for inhibition of established biofilms. This is the MIC for tobramycin alone, without attachment to NPs.

For another assay, the system named is P. aeruginosa biofilm. The assay is described as follows: Biofilm-inhibition through mucin and alginate barriers (in vitro CF biofilm model, disks). Set-up: key to Sensitivity, Mucin barrier / Sensitivity, Alginate barrier / Sensitivity, Both barriers: S for sensitive; I for intermediate; R for resistant. It counts as cell-based, Pseudomonas aeruginosa. To be noted: tobramycin 2 mg/mL; for Sensitivity, Alginate barrier / Sensitivity, Both barriers / Sensitivity, Mucin barrier: NPs 50 mg/mL; for Biofilm inhibition (number), Alginate barrier / Biofilm inhibition (number), Both barriers / Biofilm inhibition (number), Mucin barrier: NPs alginate capped 50 mg/mL. From the text: Disk diffusion method. The disk diffusion method is one of the most popular approaches to bacterial sensitivity testing due to its low cost and efficiency. The disk, impregnated with a candidate antibiotic drug or compound of interest, is placed on the inoculated agar; which contains a uniform layer of bacteria taken from liquid culture. The disks are commercially available, containing the proper concentrations of antibiotic drugs based on […]. As a low-cost alternative, disks may be prepared using filter paper soaked in the appropriate aqueous concentrations of the antibiotic drugs of interest. The underside of the plate is numbered for each sample to be tested. The cultures are distributed evenly onto a sterile agar plate using a sterile cotton swab to form a uniform layer on the agar. The disks, impregnated with NPs, drug, or NP-drug conjugates are then placed on top of the agar. The cultures are allowed to grow in the previous conditions overnight (16-18 hours). For these experiments, an vitro biofilm model was that would mimic the infection in CF in which there is an alginate and mucin barrier to drug diffusion.

[1] abbreviates: after magnetic treatment at 24 hours.

Experimental for P. aeruginosa biofilms: Biofilm phase. P. aeruginosa biofilms were developed in sterile 96 well plates (BD biosciences, USA) as described above. Biofilms were washed twice with PBS and ciprofloxacin was administered in a concentration gradient (two fold). The plates were incubated for 24 h at 37° C. and 80 rpm. At the end of incubation period, XTT reduction assay was performed to quantify the viability of biofilms. […] The assay was performed quadruplicates at three times.

`O=C(O)c1cn(C2CC2)c2cc(N3CCNCC3)c(F)cc2c1=O` [Cipro, Ciprofloxacin hydrochloride]: the “MIC80 of P. aeruginosa biofilms” value against P. aeruginosa biofilms is 1 µg/mL.

With `NC[C@H]1O[C@H](O[C@H]2[C@H](O)[C@@H](O[C@H]3O[C@H](CO)[C@@H](O)[C@H](N)[C@H]3O)[C@H](N)C[C@@H]2N)[C@H](N)C[C@@H]1O` [Tobramycin, tobramycin], in the assay with P. aeruginosa (biofilm cells), the MIC turned out to be 50 µg/mL (≈ 107 µM). The MIC against P. aeruginosa (planktonic cells) came to 15 µg/mL (≈ 32.1 µM). Besides, in the assay with P. aeruginosa biofilm (setting [1]), the “Sensitivity, Alginate barrier” value is given as “S”; the “Sensitivity, Both barriers” value is given as “S”; the “Sensitivity, Mucin barrier” value is “S”; the “Biofilm inhibition (number), Alginate barrier” value is 30. In the assay on P. aeruginosa biofilm (setting [1]), the “Biofilm inhibition (number), Both barriers” value was found to be 20 and the “Biofilm inhibition (number), Mucin barrier” value is on record as 32. Moreover, in the assay on P. aeruginosa biofilm (no magnetic treatment), the “Sensitivity, Alginate barrier” value is “S”; the “Sensitivity, Both barriers” value is “S”; the “Sensitivity, Mucin barrier” value is “S”; the “Biofilm inhibition (number), Alginate barrier” value was determined as 40. Moreover, in the assay with P. aeruginosa biofilm (no magnetic treatment), the “Biofilm inhibition (number), Both barriers” value was 40 and the “Biofilm inhibition (number), Mucin barrier” value turned out to be 30.
